Source: US20140187548A1, “6 SUBSTITUTED IMIDAZOPYRAZINES FOR USE AS MPS-1 AND TKK INHIBITORS IN THE TREATMENT OF HYPERPROLIFERATIVE DISORDERS” (BAYER INTELLECTUAL PROPERTY GMBH, priority 2010, published 2014)
pIC50: −log10 of the molar value.

Target: T1, human kinase Mps-1 (Homo sapiens, UniProt P33981)
T1 construct: N-terminally GST-tagged human full length recombinant Mps-1 kinase; GST (N); purchased Invitrogen, Karslruhe, Germany PV4071
T1 sequence (P33981 1-857): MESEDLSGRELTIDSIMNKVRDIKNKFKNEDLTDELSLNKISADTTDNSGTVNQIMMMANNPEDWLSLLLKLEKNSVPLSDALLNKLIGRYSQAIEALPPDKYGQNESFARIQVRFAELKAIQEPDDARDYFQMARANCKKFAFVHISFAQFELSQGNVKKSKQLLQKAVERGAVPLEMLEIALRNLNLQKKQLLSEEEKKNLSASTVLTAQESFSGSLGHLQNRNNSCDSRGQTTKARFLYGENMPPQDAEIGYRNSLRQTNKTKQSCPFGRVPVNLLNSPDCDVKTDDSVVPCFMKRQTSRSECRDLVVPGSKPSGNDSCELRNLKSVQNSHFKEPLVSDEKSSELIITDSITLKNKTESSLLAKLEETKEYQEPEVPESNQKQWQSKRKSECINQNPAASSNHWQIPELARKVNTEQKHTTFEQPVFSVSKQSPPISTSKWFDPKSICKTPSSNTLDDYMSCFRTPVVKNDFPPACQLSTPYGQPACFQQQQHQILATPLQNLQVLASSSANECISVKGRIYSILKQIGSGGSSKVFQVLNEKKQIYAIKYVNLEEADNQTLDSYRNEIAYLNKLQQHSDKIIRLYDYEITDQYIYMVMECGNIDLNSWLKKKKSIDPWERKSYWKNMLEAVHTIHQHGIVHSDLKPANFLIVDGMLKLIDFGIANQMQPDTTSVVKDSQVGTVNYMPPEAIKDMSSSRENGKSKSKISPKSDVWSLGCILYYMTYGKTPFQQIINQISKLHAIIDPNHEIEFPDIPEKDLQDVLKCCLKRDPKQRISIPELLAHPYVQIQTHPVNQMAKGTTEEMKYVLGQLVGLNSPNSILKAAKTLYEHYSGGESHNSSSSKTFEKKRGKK
Test: Mps-1 kinase assay (TR-FRET)
Assay type: biochemical
Conditions: N-terminally GST-tagged human full length recombinant Mps-1; 10 μM ATP; 1 μM peptide substrate; 15 min pre-incubation; 60 min at 22° C.
How it was run: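 TR-FRET read-out: after 1 h binding at 22° C, Eu-labelled anti-phospho-Ser/Thr antibody transfers to SA-XLent on the phosphorylated biotinylated peptide. The enzyme is GST-tagged full-length human Mps-1, typically about 1 nM final, in the linear range.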

In order of falling pIC50:
1. CC(C)(O)CNc1nc(-c2ccccc2)cn2c(-c3ccc(C(=O)NC4CC4)cc3)cnc12 [Example 1-125, N-cyclopropyl-4-{8-[(2-hydroxy-2-methylpropyl)amino]-6-phenylimidazo[1,2-a]pyrazin-3-yl}benzamide]  8.96
2. CC(=O)c1ccc(-c2cn3c(-c4ccc(C(=O)NC5CC5)cc4)cnc3c(NCC(C)C)n2)cc1 [Example 1-48, 4-{6-(4-acetylphenyl)-8-[(2-methylpropyl)amino]imidazo[1,2-a]pyrazin-3-yl}-N-cyclopropyl-benzamide]  8.96
3. CC(C)CNc1nc(-c2ccc(C(C)O)cc2)cn2c(-c3ccc(C(=O)NC4CC4)cc3)cnc12 (racemic) [Example 6-2, (RS)N-cyclopropyl-4-{6-[4-(1-hydroxyethyl)phenyl]-8-(isobutylamino)imidazo[1,2-a]pyrazin-3-yl}benzamide]  8.96
4. CC(C)CNc1nc(-c2ccc(C(=O)Nc3ccccc3)cc2)cn2c(-c3ccc(C(=O)NC4CC4)cc3)cnc12 [Example 1-53, 4-{3-[4-(cyclopropyl-carbamoyl)phenyl]-8-[(2-methylpropyl)amino]imidazo[1,2-a]pyrazin-6-yl}-N-phenylbenzamide]  8.68
5. O=C(NC1CC1)c1ccc(-c2cnc3c(NCC4CCCC4)nc(-c4ccccc4)cn23)cc1 [Example 2-72, 4-{8-[(Cyclopentylmethyl)amino]-6-phenylimidazo[1,2-a]pyrazin-3-yl}-N-cyclopropylbenzamide]  8.60
6. O=C(NC1CC1)c1ccc(-c2cnc3c(NCCC(F)(F)F)nc(-c4ccc(F)cc4)cn23)cc1F [Example 1-112, N-cyclopropyl-2-fluoro-4-{6-(4-fluorophenyl)-8-[(3,3,3-trifluoropropyl)amino]imidazo[1,2-a]pyrazin-3-yl}benzamide]  8.59
7. CC(C)CCNc1nc(-c2ccccc2)cn2c(-c3ccc(C(=O)NC4CC4)cc3)cnc12 [Example 2-4, N-cyclopropyl-4-{8-[(3-methylbutyl)amino]-6-phenylimidazo[1,2-a]pyrazin-3-yl}benzamide]  8.49
8. O=C(NC1CC1)c1ccc(-c2cnc3c(NCc4ccco4)nc(-c4ccccc4)cn23)cc1 [Example 2-75, N-cyclopropyl-4-{8-[(2-furylmethyl)amino]-6-phenylimidazo[1,2-a]pyrazin-3-yl}benzamide]  8.49
9. CSc1ccccc1-c1cn2c(-c3ccc(C(=O)NC4CC4)cc3)cnc2c(NCC(C)C)n1 [Example 1-70, N-cyclopropyl-4-{8-[(2-methylpropyl)amino]-6-[2-(methylsulfanyl)phenyl]imidazo[1,2-a]pyrazin-3-yl}benzamide]  8.49
10. O=C(NC1CC1)c1ccc(-c2cnc3c(NCc4ccccn4)nc(-c4ccccc4)cn23)cc1 [Example 2-27, N-cyclopropyl-4-{6-phenyl-8-[(pyridin-2-ylmethyl)amino]imidazo[1,2-a]pyrazin-3-yl} benzamide]  8.48
11. CC(C)CNc1nc(-c2ccc3ncccc3c2)cn2c(-c3ccc(C(=O)NC4CC4)cc3)cnc12 [Example 1-76, N-cyclopropyl-4-{8-[(2-methylpropyl)amino]-6-(quinolin-6-yl)imidazo [1,2-a]pyrazin-3-yl} benzamide]  8.48
12. CSc1ccc(-c2cn3c(-c4ccc(C(=O)NC5CC5)cc4)cnc3c(NCC(C)C)n2)cc1 [Example 1-18, N-cyclopropyl-4-{8-[(2-methylpropyl)amino]-6-[4-(methylsulfanyl)phenyl]imidazo[1,2-a]pyrazin-3-yl}benzamide]  8.07
13. CC(C)(O)CNc1nc(-c2ccc(F)cc2)cn2c(-c3ccc(C(=O)NC4CC4)c(Cl)c3)cnc12 [Example 1-98, 2-chloro-N-cyclopropyl-4-{6-(4-fluorophenyl)-8-[(2-hydroxy-2-methyl-propyl)amino]imidazo [1,2-a]pyrazin-3-yl} benzamide]  7.89
14. CN(C)c1ccc(-c2cn3c(-c4ccc(C(=O)NC5CC5)c(F)c4)cnc3c(NCc3ccnn3C)n2)cc1 [Example 1-120, N-cyclopropyl-4-(6-[4-(dimethylamino)phenyl]-8-{[(1-methyl-1H-pyrazol-5-yl)methyl]amino}imidazo[1,2-a]pyrazin-3-yl)-2-fluorobenzamide]  7.77
15. COc1c(C)cc(-c2cn3c(-c4ccc(C(=O)NC5CC5)cc4)cnc3c(NCC(C)C)n2)cc1C [Example 1-68, N-cyclopropyl-4-{6-(4-methoxy-3,5-dimethylphenyl)-8-[(2-methyl-propyl)amino]imidazo [1,2-a]pyrazin-3-yl} benzamide]  7.71
16. O=C(NC1CC1)c1ccc(-c2cnc3c(NCCc4cccs4)nc(-c4ccccc4)cn23)cc1 [Example 2-39, N-cyclopropyl-4-(6-phenyl-8-{[2-(thiophen-2-yl)ethyl]amino}imidazo[1,2-a]pyrazin-3-yl)benzamide]  7.71
17. CC(C)CNc1nc(-c2ccc(C(C)C)cc2)cn2c(-c3ccc(C(=O)NC4CC4)cc3)cnc12 [Example 1-59, N-cyclopropyl-4-{8-[(2-methylpropyl)amino]-6-[4-(propan-2-yl)phenyl]imidazo[1,2-a]pyrazin-3-yl}benzamide]  7.25
